pIC50: −log10 of the molar value. Calls of active or inactive are those of the source. The calls are words filed in the database; no cut-off is given here.
How the values were obtained:
Rattus norvegicus [1] = assay: Antifibrotic activity in bleomycin-induced Sprague-Dawley rat pulmonary fibrosis model assessed as decrease in relaxation time at 2.5 to 5 mg/kg, ip administered daily for 28 days; type: functional, organism-based; details: dose 2.5-5 mg/kg, time 28.0 day
Rattus norvegicus [2] = assay: Antifibrotic activity in bleomycin-induced Sprague-Dawley rat pulmonary fibrosis model assessed as decrease in enhanced pause at 2.5 to 5 mg/kg, ip administered daily for 28 days; type: functional, organism-based; details: dose 2.5-5 mg/kg, time 28.0 day
[3] = Half life in Sprague-Dawley rat at 5 mg/kg, iv; type: ADME, organism-based; details: in vivo
Rattus norvegicus [4] = assay: Antifibrotic activity in bleomycin-induced Sprague-Dawley rat pulmonary fibrosis model assessed as decrease in end-expiratory pause at 2.5 to 5 mg/kg, ip administered daily for 28 days; type: functional, organism-based; details: dose 2.5-5 mg/kg, time 28.0 day
Rattus norvegicus [5] = assay: Antifibrotic activity in bleomycin-induced Sprague-Dawley rat pulmonary fibrosis model assessed as increase in respiratory rate at 2.5 to 5 mg/kg, ip administered daily for 28 days; type: functional, organism-based; details: dose 2.5-5 mg/kg, time 28.0 day
[6] = biological target: 3',5'-cyclic-AMP phosphodiesterase 4D (Homo sapiens, UniProt Q08499); assay: Inhibition of PDE4D2 (86 to 413 residues) (unknown origin) expressed in Escherichia coli BL21 [3H]-cAMP as substrate measured for 15 mins by liquid scintillation counter method
[7] = biological target: Dual specificity calcium/calmodulin-dependent 3',5'-cyclic nucleotide phosphodiesterase 1A (Homo sapiens, UniProt P54750); assay: Inhibition of PDE1A (142 to 552 residues) (unknown origin) expressed in Escherichia coli BL21 measured for 15 mins by liquid scintillation counter method
[8] = biological target: Dual specificity calcium/calmodulin-dependent 3',5'-cyclic nucleotide phosphodiesterase 1B (Homo sapiens, UniProt Q01064); assay: Inhibition of PDE1B (10 to 487 residues) (unknown origin) expressed in Escherichia coli BL21 using [3H]-cGMP as substrate measured for 15 mins by liquid scintillation counter method
[9] = biological target: cGMP-dependent 3',5'-cyclic phosphodiesterase (Homo sapiens, UniProt O00408); assay: Inhibition of PDE2A (580 to 919 residues) (unknown origin) expressed in Escherichia coli BL21 using [3H]-cGMP as substrate measured for 15 mins by liquid scintillation counter method
[10] = biological target: cGMP-inhibited 3',5'-cyclic phosphodiesterase 3A (Homo sapiens, UniProt Q14432); assay: Inhibition of PDE3A (679 to 1087 residues) (unknown origin) expressed in Escherichia coli BL21 using [3H]-cAMP as substrate measured for 15 mins by liquid scintillation counter method
[11] = biological target: 3',5'-cyclic-AMP phosphodiesterase 4B (Homo sapiens, UniProt Q07343); assay: Inhibition of PDE4B2 (152 to 487 residues) (unknown origin) expressed in Escherichia coli BL21 measured for 15 mins by liquid scintillation counter method
[12] = biological target: cGMP-specific 3',5'-cyclic phosphodiesterase (Homo sapiens, UniProt O76074); assay: Inhibition of PDE5A1 (535 to 860 residues) (unknown origin) expressed in Escherichia coli BL21 [3H]-cGMP as substrate measured for 15 mins by liquid scintillation counter method
[13] = biological target: High affinity 3',5'-cyclic-AMP phosphodiesterase 7A (Homo sapiens, UniProt Q13946); assay: Inhibition of PDE7A1 (130-482 residues) (unknown origin) expressed in Escherichia coli BL21 using [3H]-cAMP as substrate measured for 15 mins by liquid scintillation counter method
[14] = biological target: High affinity cAMP-specific and IBMX-insensitive 3',5'-cyclic phosphodiesterase 8A (Homo sapiens, UniProt O60658); assay: Inhibition of PDE8A1 (480 to 820 residues) (unknown origin) expressed in Escherichia coli BL21 using [3H]-cAMP as substrate measured for 15 mins by liquid scintillation counter method
[15] = biological target: High affinity cGMP-specific 3',5'-cyclic phosphodiesterase 9A (Homo sapiens, UniProt O76083); assay: Inhibition of PDE9A2 (181 to 506 residues) (unknown origin) expressed in Escherichia coli BL21 using [3H]-cGMP as substrate measured for 15 mins by liquid scintillation counter method
[16] = biological target: cAMP and cAMP-inhibited cGMP 3',5'-cyclic phosphodiesterase 10A (Homo sapiens, UniProt Q9Y233); assay: Inhibition of PDE10A (449 to 770 residues) (unknown origin) expressed in Escherichia coli BL21 using [3H]-cAMP as substrate measured for 15 mins by liquid scintillation counter method
[17] = Cmax in Sprague-Dawley rat at 5 mg/kg, iv; type: ADME, organism-based; set-up: dose 5 mg/kg, route iv; details: in vivo
[18] = AUC (0 to t) in Sprague-Dawley rat at 5 mg/kg, iv; type: ADME, organism-based; set-up: dose 5 mg/kg, route iv; details: in vivo
[19] = AUC (0 to infinity) in Sprague-Dawley rat at 5 mg/kg, iv; type: ADME, organism-based; set-up: time infinity, dose 5 mg/kg, route iv; details: in vivo
[20] = Clearance in Sprague-Dawley rat at 5 mg/kg, iv; type: ADME, organism-based; details: in vivo
[21] = MRT (0 to t) in Sprague-Dawley rat at 5 mg/kg, iv; type: ADME, organism-based; details: in vivo
[22] = Volume of distribution at steady state in Sprague-Dawley rat at 5 mg/kg, iv; type: ADME, organism-based; details: in vivo, read-out: Vdss
Rattus norvegicus [23] = assay: Antifibrotic activity in bleomycin-induced Sprague-Dawley rat pulmonary fibrosis model assessed as decrease in enhanced pause at 150 mg/kg, po administered daily for 28 days; type: functional, organism-based; details: time 28.0 day
Rattus norvegicus [24] = assay: Antifibrotic activity in bleomycin-induced Sprague-Dawley rat pulmonary fibrosis model assessed as decrease in relaxation time at 150 mg/kg, po administered daily for 28 days; type: functional, organism-based; details: time 28.0 day
Rattus norvegicus [25] = assay: Antifibrotic activity in bleomycin-induced Sprague-Dawley rat pulmonary fibrosis model assessed as decrease in end-expiratory pause at 150 mg/kg, po administered daily for 28 days; type: functional, organism-based; details: time 28.0 day
Rattus norvegicus [26] = assay: Antifibrotic activity in bleomycin-induced Sprague-Dawley rat pulmonary fibrosis model assessed as increase in respiratory rate at 150 mg/kg, po administered daily for 28 days; type: functional, organism-based; details: time 28.0 day

cGMP-inhibited 3',5'-cyclic phosphodiesterase 3A, sequence (Q14432 whole entry, the tested form may be a part): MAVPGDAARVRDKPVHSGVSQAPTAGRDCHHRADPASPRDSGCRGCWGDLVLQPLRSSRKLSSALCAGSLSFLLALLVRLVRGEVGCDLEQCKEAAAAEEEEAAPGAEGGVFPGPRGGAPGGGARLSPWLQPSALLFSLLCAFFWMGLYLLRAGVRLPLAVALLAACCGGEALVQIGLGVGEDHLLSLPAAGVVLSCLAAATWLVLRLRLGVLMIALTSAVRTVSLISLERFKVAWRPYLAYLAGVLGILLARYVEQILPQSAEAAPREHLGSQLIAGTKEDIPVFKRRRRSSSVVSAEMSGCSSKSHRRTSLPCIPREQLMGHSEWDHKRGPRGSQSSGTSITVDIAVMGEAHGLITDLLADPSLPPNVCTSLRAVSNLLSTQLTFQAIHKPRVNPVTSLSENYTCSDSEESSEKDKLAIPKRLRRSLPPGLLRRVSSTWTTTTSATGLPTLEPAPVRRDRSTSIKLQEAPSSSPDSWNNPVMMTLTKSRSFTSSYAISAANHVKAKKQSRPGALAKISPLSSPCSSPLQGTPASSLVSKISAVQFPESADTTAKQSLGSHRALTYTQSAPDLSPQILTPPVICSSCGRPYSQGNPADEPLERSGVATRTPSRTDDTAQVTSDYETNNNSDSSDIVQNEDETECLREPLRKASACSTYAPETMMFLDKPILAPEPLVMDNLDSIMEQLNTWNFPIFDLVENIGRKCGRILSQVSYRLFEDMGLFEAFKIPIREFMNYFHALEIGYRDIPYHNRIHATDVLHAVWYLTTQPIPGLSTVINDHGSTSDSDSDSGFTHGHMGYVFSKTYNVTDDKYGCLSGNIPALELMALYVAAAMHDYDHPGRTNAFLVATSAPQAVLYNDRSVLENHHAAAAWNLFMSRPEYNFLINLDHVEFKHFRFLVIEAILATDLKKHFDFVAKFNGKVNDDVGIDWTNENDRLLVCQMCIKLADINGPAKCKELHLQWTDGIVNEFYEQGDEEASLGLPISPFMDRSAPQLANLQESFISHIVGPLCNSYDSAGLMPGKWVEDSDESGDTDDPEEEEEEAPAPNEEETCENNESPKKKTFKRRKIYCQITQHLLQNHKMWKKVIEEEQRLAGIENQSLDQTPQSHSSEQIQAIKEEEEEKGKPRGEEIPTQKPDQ
Dual specificity calcium/calmodulin-dependent 3',5'-cyclic nucleotide phosphodiesterase 1A, sequence (P54750 whole entry, the tested form may be a part): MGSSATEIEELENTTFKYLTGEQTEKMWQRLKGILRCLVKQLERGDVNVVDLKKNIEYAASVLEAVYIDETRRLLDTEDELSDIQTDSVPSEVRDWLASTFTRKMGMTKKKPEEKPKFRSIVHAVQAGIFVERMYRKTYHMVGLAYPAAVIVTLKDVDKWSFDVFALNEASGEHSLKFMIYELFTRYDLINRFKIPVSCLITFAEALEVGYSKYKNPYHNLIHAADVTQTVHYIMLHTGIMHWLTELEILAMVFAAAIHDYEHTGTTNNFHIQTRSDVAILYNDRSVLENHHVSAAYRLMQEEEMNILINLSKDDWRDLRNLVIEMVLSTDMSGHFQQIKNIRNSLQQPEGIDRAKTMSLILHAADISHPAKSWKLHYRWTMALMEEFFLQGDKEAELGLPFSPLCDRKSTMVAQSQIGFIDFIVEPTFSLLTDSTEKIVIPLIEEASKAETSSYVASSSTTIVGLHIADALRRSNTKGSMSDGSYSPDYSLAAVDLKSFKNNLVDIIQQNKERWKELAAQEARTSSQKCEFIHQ
3',5'-cyclic-AMP phosphodiesterase 4B, sequence (Q07343 whole entry, the tested form may be a part): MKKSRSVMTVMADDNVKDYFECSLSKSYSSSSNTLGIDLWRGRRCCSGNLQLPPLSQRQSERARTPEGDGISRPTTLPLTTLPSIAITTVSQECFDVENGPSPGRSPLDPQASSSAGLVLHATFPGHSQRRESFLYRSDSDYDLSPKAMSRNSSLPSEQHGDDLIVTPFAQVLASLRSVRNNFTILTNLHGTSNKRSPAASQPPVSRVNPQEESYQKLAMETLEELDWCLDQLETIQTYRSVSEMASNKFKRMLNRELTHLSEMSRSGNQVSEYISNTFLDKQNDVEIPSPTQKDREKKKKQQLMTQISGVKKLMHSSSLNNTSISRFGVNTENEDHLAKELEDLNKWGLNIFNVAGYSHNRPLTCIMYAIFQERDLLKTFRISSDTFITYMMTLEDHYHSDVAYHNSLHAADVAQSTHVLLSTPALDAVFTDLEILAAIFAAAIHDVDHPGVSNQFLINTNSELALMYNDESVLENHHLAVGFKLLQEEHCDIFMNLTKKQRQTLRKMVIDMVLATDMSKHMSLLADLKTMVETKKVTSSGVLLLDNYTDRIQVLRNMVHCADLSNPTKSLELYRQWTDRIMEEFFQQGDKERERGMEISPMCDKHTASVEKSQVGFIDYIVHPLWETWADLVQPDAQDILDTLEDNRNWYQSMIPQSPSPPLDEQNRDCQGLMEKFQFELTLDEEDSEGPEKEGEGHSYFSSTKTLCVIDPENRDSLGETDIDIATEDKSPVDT
High affinity cGMP-specific 3',5'-cyclic phosphodiesterase 9A, sequence (O76083 whole entry, the tested form may be a part): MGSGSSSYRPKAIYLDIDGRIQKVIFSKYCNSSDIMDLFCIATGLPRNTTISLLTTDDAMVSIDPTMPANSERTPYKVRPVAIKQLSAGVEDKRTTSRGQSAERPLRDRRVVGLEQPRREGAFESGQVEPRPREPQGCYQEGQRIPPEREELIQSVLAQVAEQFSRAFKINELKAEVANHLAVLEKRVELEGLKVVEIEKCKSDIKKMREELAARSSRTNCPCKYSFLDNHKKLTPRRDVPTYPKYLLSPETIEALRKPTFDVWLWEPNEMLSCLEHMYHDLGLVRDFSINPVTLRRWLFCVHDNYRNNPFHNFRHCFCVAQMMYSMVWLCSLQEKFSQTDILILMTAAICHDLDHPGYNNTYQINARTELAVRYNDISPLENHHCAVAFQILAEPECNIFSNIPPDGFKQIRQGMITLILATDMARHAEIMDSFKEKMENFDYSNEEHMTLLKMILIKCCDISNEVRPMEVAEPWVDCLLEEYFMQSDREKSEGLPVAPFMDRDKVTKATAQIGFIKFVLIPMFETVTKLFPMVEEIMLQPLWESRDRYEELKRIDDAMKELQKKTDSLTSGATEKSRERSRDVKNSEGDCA
Dual specificity calcium/calmodulin-dependent 3',5'-cyclic nucleotide phosphodiesterase 1B, sequence (Q01064 whole entry, the tested form may be a part): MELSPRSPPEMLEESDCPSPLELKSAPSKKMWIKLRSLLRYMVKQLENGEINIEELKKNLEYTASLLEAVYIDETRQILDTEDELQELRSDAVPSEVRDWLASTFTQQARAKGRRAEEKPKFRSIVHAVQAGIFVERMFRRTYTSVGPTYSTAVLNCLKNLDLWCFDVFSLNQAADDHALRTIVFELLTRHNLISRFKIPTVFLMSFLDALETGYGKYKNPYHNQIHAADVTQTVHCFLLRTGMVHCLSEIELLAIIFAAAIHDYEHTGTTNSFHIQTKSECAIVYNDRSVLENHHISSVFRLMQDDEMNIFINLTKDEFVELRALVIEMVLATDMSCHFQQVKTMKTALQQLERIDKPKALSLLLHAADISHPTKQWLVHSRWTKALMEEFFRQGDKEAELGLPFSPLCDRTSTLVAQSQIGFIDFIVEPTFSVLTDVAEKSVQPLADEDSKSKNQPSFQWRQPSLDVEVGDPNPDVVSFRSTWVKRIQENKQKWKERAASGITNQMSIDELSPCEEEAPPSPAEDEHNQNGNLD
High affinity cAMP-specific and IBMX-insensitive 3',5'-cyclic phosphodiesterase 8A, sequence (O60658 whole entry, the tested form may be a part): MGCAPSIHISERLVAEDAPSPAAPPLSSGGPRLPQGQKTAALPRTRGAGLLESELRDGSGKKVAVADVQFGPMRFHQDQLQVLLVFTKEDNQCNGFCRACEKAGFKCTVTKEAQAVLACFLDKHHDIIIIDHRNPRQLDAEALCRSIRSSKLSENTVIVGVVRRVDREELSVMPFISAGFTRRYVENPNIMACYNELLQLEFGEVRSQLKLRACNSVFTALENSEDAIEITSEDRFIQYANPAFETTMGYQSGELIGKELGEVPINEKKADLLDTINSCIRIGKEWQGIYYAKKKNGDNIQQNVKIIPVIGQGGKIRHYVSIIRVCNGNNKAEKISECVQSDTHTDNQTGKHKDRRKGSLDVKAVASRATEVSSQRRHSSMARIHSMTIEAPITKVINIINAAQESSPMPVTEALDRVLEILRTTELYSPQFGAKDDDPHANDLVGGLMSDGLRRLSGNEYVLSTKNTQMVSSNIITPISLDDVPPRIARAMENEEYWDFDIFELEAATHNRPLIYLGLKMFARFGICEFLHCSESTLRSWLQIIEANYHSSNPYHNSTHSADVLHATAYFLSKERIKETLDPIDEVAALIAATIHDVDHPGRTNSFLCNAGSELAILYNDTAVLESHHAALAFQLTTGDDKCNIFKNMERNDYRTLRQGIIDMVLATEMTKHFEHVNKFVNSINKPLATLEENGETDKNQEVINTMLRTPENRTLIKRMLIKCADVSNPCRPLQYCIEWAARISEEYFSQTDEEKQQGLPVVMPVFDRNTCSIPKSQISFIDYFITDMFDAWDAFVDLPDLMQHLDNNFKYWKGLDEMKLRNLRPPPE
High affinity 3',5'-cyclic-AMP phosphodiesterase 7A, sequence (Q13946 whole entry, the tested form may be a part): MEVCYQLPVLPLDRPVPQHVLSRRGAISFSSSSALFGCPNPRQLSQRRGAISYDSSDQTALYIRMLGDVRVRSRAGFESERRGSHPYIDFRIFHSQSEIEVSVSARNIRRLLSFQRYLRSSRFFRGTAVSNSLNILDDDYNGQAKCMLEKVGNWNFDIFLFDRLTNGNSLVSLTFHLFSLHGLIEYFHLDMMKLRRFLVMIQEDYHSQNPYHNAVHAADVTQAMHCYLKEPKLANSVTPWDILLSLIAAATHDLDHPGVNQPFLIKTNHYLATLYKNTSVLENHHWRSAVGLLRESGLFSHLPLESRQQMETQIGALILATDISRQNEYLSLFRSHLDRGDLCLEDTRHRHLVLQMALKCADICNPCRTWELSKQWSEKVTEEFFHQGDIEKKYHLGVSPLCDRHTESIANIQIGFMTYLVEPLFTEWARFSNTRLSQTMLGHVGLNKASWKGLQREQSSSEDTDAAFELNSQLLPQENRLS

In the case of `CC1=C(C(=O)O[C@H](C)c2ccccc2)C(c2ccc3c(cnn3C)c2)C(C(=O)O[C@H](C)c2ccccc2)=C(C)N1`, the Activity (Rattus norvegicus [1]) was “Active”, the Activity (Rattus norvegicus [2]) was “Active” and the half-life [3] was 3.67 h. For the same molecule, the Activity (Rattus norvegicus [4]) was “Active”, the Activity (Rattus norvegicus [5]) was “Active” and the pIC50 [6] was 6.02. For the same molecule, the pIC50 [7] was 6.84, the pIC50 [8] was 6.45 and the pIC50 [9] was 5.29. The pIC50 [10] was < 5.00, the pIC50 [11] was 6.21 and the pIC50 [12] was 5.74. The pIC50 [13] was 5.85, the pIC50 [14] was < 5.00 and the pIC50 [15] was < 5.00. It also gave a pIC50 [16] of 5.88, a Cmax [17] of 2830 ng/mL and an AUC(0-t) [18] of 4560 ng·h/mL. The AUC(0-inf) [19] was 4590 ng·h/mL, the clearance [20] was 18.4 mL/min/kg and the MRT last [21] was 3.44 h. For the same molecule, the Vd [22] was 3.81 L/kg, the Activity (Rattus norvegicus [23]) was “Active” and the Activity (Rattus norvegicus [24]) was “Active”. The Activity (Rattus norvegicus [25]) was “Active” and the Activity (Rattus norvegicus [26]) was “Active”.

Reference: ChEMBL document CHEMBL5154941, “Structural Modifications of Nimodipine Lead to Novel PDE1 Inhibitors with Anti-pulmonary Fibrosis Effects” (J Med Chem, 2022)
